Data from patent publication US20170007562A1, “Use of Guanidinoacetic Acid and/or Creatine for Increasing the Hatch Rate” (EVONIK DEGUSSA GMBH, priority 2014, published 2017).

How the values were obtained:
[1] = tested on: parent quails / quail eggs; assay: Effect of guanidinoacetic acid in parent feed on total fertility, hatching rate and embryo mortality of quail eggs; format: in vivo; conditions: for Total fertility: eggs of quails aged 29 weeks; for Hatching rate: hatched quails to incubated eggs
Description: 240 parent quails aged 25 weeks were randomly assigned to 5 different rations. Each ration had in each case 8 cages assigned to it, each of which contained a total of 6 birds (4 females, 2 males). Each of the cages was exposed to 17 hours light (natural and artificial), followed by 7 hours dark.
The basic feed employed was a mixture which consisted essentially of maize meal and extracted soybean meal (see table 1). Guanidinoacetic acid (GAA) was added to the basic feed in 4 different amounts (0.06; 0.12; 0.18; 0.24% by weight) giving in total 5 different feed mixtures—with the basic feed without guanidinoacetic acid as reference. The inert constituents of the basic feed were in each case partially substituted by the added guanidinoacetic acid. Guanidinoacetic acid was employed in the form of the commercial product CreAMINO® (96% GAA, Evonik Industries, Germany). During the experiment, the feed was administered ad lib in the form of a meal. Furthermore, the birds were also supplied with sufficient water.
When the quails had reached an age of 29 weeks, the eggs laid were collected on seven successive days and stored for six days in a room at a temperature of 20° C. Thereafter, in each case 196 eggs per ration were incubated in an automatic hatcher. After incubation for 15 days in the hatcher, the eggs were transferred into a hatching room with a temperature of 37° C. and relative atmospheric humidity of 65%. After two days in the hatching room, the hatching rate was determined as the ratio of hatched quails to the number of incubated eggs. Equally, the total fertility was determined as the ratio of fertilized eggs to the total number of incubated eggs. Furthermore, the hatching rate of fertilized eggs was determined as the ratio of hatched quails to the number of fertilized eggs. Furthermore, the embryo mortality, too, was determined. Finally, the guanidinoacetic acid, creatine and creatinine contents in the obtained eggs were determined.

[2] = tested on: parent broilers (Cobb 500); assay: Effect of guanidinoacetic acid on egg production, fertility and hatching rate of hatchery eggs of parent broilers; format: in vivo; conditions: week 50 to 60
From the text: 120 parent broilers (Cobb 500) were randomly assigned to 5 different 10-week feeding measures from week 50 to week 60 of their lives. In each case 6 cages, each of which contained a total of 4 parent hens were subjected to each feeding measure. The basic feed employed was a mixture consisting essentially of maize meal and soybean meal (Table 5). […] In this context, in each case the inert constituents of the basic feed were substituted to some extent by the added guanidinoacetic acid. Guanidinoacetic acid was employed in the form of the commercial product CreAMINO® (96% GAA, Evonik Industries, Germany). The parent animals were given the feed meal as per instructions of the Cobb Breeder Management Guide. In week 60 of their lives, the hens were twice artificially inseminated, the second insemination taking place 4 days after the first one. The semen used for the insemination was obtained from cockerels which had not been fed GAA. The semen was obtained by using abdominal massage. The semen obtained was collected and the sperm cell concentration was determined in order to ensure that all hens were inseminated with the same number and the same volume of sperm cells. After carrying out the insemination, the laid eggs were collected on 10 successive days. The eggs obtained were finally incubated under identical conditions, and the egg production rate, fertility and hatching rate of the fertilized eggs were subsequently determined.

[3] = tested on: hatched quail chicks; assay: Effect of GAA feeding of the parent animals on the properties of the hatched chicks; format: in vivo, quails; conditions: for Feed conversion / Weight gain / total feed intake, days 1–35: GAA-free ration, days 1 to 35; for Weight on day 1: chicks on GAA-free ration
From the text: Finally, the effect of GAA feeding of the parent animals on the properties of the hatched chicks was also studied. To this end, in each case 80 chicks which had been obtained subsequently to feeding the parent animals with the respective ratios were subjected to a two-step feeding programme. Here, the chicks were subjected to a GAA-free ration. Here, all chicks were given the same feed. The feeding stuff of the chicks for the first three weeks and for weeks four to five can be seen from Table 1. The data determined were chick weight on the day of hatching, chick performance (feed intake, weight increase and feed conversion) and creatine content in the muscle tissue of the freshly hatched chicks.

[4] = tested on: eggs; conditions: prior art, Halle et al, Landbauforschung Völkenrode (2006); cited from earlier work
[5] = 0.06% by weight GAA in parent feed
[6] = 0.06% by weight GAA in parent feed, quails
[7] = 0.12% by weight GAA in parent feed
[8] = 0.12% by weight GAA in parent feed, quails
[9] = 0.18% by weight GAA in parent feed
[10] = 0.18% by weight GAA in parent feed, quails
[11] = 0.24% by weight GAA in parent feed
[12] = 0.24% by weight GAA in parent feed, quails
[13] = square regression analysis, quails
[14] = 0.04% by weight guanidinoacetic acid in feed
[15] = 0.08% by weight guanidinoacetic acid in feed
[16] = 0.12% by weight guanidinoacetic acid in feed
[17] = 0.16% by weight guanidinoacetic acid in feed
[18] = chicks of parents fed 0.06% by weight GAA
[19] = chicks of parents fed 0.12% by weight GAA
[20] = chicks of parents fed 0.18% by weight GAA
[21] = chicks of parents fed 0.24% by weight GAA

## N=C(N)NCC(=O)O [GAA, Guanidinoacetic acid]
[1]; [5]
  Total fertility: 95.27 ± 1.81%
  Hatching rate: 76.52 ± 3.78%
[1]; [6]
  Hatching rate of the fertilized eggs: 80.19 ± 3.07%
  Mortality (embryo mortality): 18.75 ± 2.76%
[1]; [7]
  Total fertility: 97.05 ± 1.51%
  Hatching rate: 90.69 ± 2.10%
[1]; [8]
  Hatching rate of the fertilized eggs: 93.49 ± 2.04%
  Mortality (embryo mortality): 6.40 ± 1.96%
[1]; [9]
  Total fertility: 98.32 ± 0.82%
  Hatching rate: 87.39 ± 3.20%
[1]; [10]
  Hatching rate of the fertilized eggs: 88.94 ± 3.33%
  Mortality (embryo mortality): 10.92 ± 3.32%
[1]; [11]
  Total fertility: 94.02 ± 1.29%
  Hatching rate: 81.38 ± 2.50%
[1]; [12]
  Hatching rate of the fertilized eggs: 86.51 ± 2.03%
  Mortality (embryo mortality): 12.64 ± 1.89%
[1]; quails
  dosage from which the observed effects were significantly increased: above 0.1 % by weight
  optimum range of feeding the parent animals: 0.12-0.18 % by weight
[1]; [13]
  optimum value for GAA supplementation in terms of the hatching rate: 0.15 % by weight
  optimum value for GAA supplementation in terms of the hatching rate of fertilized eggs: 0.16 % by weight
  optimum value for GAA supplementation in terms of the mortality rate: 0.16 % by weight
  optimum value for GAA supplementation in terms of the total reproduction: 0.14 % by weight
[2]; [14]
  Egg production: 50.42%
  Fertility: 85.15%
  Hatching rate (of fertilized eggs): 65.59%
[2]; [15]
  Egg production: 53.18%
  Fertility: 96.51%
  Hatching rate (of fertilized eggs): 83.76%
[2]; [16]
  Egg production: 53.44%
  Fertility: 96.43%
  Hatching rate (of fertilized eggs): 83.95%
[2]; [17]
  Egg production: 50.50%
  Fertility: 81.76%
  Hatching rate (of fertilized eggs): 65.04%
[3]; [18]
  Feed conversion: 3.248 ± 0.063 g/g
  Weight gain: 230.74 ± 7.6 g
  total feed intake, days 1–35: 748 ± 11.1 g
  Weight on day 1: 9.60 ± 0.16 g
[3]; [19]
  Feed conversion: 3.414 ± 0.048 g/g
  Weight gain: 224.98 ± 2.9 g
  total feed intake, days 1–35: 768 ± 11.1 g
  Weight on day 1: 9.74 ± 0.31 g
[3]; [20]
  Feed conversion: 3.305 ± 0.033 g/g
  Weight gain: 217.22 ± 0.6 g
  total feed intake, days 1–35: 718 ± 8.95 g
  Weight on day 1: 9.65 ± 0.16 g
[3]; [21]
  Feed conversion: 3.455 ± 0.090 g/g
  Weight gain: 222.86 ± 1.9 g
  total feed intake, days 1–35: 770 ± 26.1 g
  Weight on day 1: 9.41 ± 0.17 g
[3]; freshly hatched chicks of parents fed 0.06% by weight GAA
  Creatine in the muscle: 0.541 ± 0.026 mg/g
[3]; freshly hatched chicks of parents fed 0.12% by weight GAA
  Creatine in the muscle: 0.489 ± 0.058 mg/g
[3]; freshly hatched chicks of parents fed 0.18% by weight GAA
  Creatine in the muscle: 0.481 ± 0.040 mg/g
[3]; freshly hatched chicks of parents fed 0.24% by weight GAA
  Creatine in the muscle: 0.433 ± 0.033 mg/g

## CN(CC(=O)O)C(=N)N [creatine]
[4]
  effect on the hatching rate: no effect
